Measured values: patent publication US20180273970A1, “PLASMID, TRANSFORMED PLANT CELL AND TRANSGENIC PLANT COMPRISING THE SAME, AND METHODS FOR PREPARING A TRANSGENIC PLANT AND FOR INCREASING YIELD OF A PLANT UNDER ABIOTIC STRESSES” (Academia Sinica, priority 2014, published 2018)

Experiments:
rice seedlings [1] = test: Seed germination and shoot elongation in air or under water (hypoxia); type: in vivo; details: under water with 90 mM sucrose
Method: FIG. 6. SKINs suppress sugar production necessary for seedling growth under hypoxia. Rice seeds were germinated in air or in water with or without 90 mM sucrose at 28° C. under a 14-h light/10-h dark cycle for various lengths of time. Shoot length of seedlings were measured daily. Error bars indicate the S.E. of shoot length (n=10). Panel 1: transgenic line SKIN1-04 overexpressing SKIN1; panel 2: transgenic line SKIN2-04 overexpressing SKIN2. For data using more SKIN-Ox and SKIN-Ri lines, see also FIG. 16 online.
FIG. 16. SKINs suppress sugar production necessary for underwater seedling growth. Rice seeds of SKIN-Ox and SKIN-Ri lines were germinated in air or in water with or without 90 mM sucrose for various lengths of time. Shoot length of seedlings were measured daily. Error bars indicate the S.E. of shoot length (n=10). Panel 1: in air; panel 2: in water; panel 3: in water with sucrose.
The experiment was performed as described (Lee et al., 2009). For germination in air, seeds were placed on 3M filter papers wetted with water in a 50-ml centrifuge tube which contains half-strength MS agar medium. For germination under water, seeds were placed in a 50-ml centrifuge tube, autoclaved water was carefully poured into the tube to avoid any air bubbles, and tubes were sealed with lids.

rice seedlings [2] = test: Seedling shoot and root growth under light/dark cycle or continuous darkness, with or without sucrose; type: in vivo; details: 3% (88 mM) sucrose, 6 days
Method: FIG. 5. SKINs repress seedling growth by inhibiting nutrient mobilization in the endosperm. Transgenic lines SKIN1-Ox(O3), SKIN1-Ri(R3), SKIN2-Ox(02) and SKIN2-Ri(R1) were used in the following experiments. (A) Seeds were germinated and grown in water at 28° C. under a 14-h light/10-h dark cycle or continuous darkness without (panel 1) or with (panel 2) 3% (90 mM) sucrose for 6 days. (B) Lengths of shoots and roots of seedlings in (A) were quantified. Panels 1 and 2, without and with sucrose, respectively. (C) Seedlings were grown under a 14-h light/10-h dark cycle or continuous darkness for 3 days. Total RNA was extracted and subjected to quantitative (real-time) RT-PCR analysis using primers specific for αAmy3 (panel 1) and EP3A (panel 2). Error bars represent SE (n=12) at significance levels: * p<0.1, **p<0.05 in (B) and (C).
Rice (Oryza sativa cv Tainung 67) and barley (Hordeum vulgare cv Himalaya) were used in this study. Embryo calli were induced in the Murashige & Skoog (MS) medium containing 3% sucrose and […] 2,4-D (2,4-Dichlorophenoxyacetic acid) for 5 days. For hydroponic culture of rice seedlings, seeds were sterilized with 1.5% NaOCl plus Tween 20 for 1 h, washed extensively with distilled water, and germinated in a petri dish with wetted filter papers at 28° C. under a 14-h light/10-h dark condition unless otherwise indicated. […]

[3] = biological target: T1, SnRK1A (full length, expressed from Ubi:SnRK1A) (rice, UniProt Q852Q2 1-505); test: co-expression and confocal localization of GFP fusions in barley aleurone cells
T1 construct: range 1-505; also called pUbi-SnRK1A-Nos
T1 sequence (looked up): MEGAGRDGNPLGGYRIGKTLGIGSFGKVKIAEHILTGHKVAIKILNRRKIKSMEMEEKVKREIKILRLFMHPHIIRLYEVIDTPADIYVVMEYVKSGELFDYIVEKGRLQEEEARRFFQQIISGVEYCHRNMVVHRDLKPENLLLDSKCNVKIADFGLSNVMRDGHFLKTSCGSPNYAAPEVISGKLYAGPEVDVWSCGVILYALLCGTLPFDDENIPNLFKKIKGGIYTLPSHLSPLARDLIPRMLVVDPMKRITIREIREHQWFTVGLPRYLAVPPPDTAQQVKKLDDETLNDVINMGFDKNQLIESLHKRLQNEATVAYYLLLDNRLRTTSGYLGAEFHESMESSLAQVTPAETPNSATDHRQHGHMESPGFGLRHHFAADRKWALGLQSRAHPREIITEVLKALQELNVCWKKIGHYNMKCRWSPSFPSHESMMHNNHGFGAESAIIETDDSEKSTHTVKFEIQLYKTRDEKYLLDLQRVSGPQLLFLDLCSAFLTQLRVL
Method: Detection of cellular localization of SKIN-GFP, SnRK1A-GFP and MYBS1-GFP fusion proteins were performed as described (Hong et al., 2012). Embryoless barley and rice seeds were sterilized with 1% NaOCl for 30 mins, and incubated in a buffer containing 20 mM CaCl₂ and 20 mM sodium succinate, pH 5.0, for 4 days. Aleurone layers were isolated by scratching away starch in the endosperm with a razor blade. Four aleurone layers were arranged in a 10-cm dish for bombardment. Aleurone layers expressing GFP were examined with a Ziess confocal microscope (LSM510META) using a 488-nm laser line for excitation and a 515- to 560-nm long pass filter for emission.
The subcellular localization of SKIN and SnRK1A was determined. As SKINs interact with the KD of SnRK1A, the full-length, KD and RD of SnRK1A were fused to the green fluorescence protein (GFP) and expressed under the control of the Ubi promoter in a barley aleurone cell transient expression system (Hong et al., 2012). As shown in FIG. 7 and FIG. 17, SnRK1A-GFP and SnRK1A-KD-GFP were largely localized in the cytoplasm and minor in the nucleus and SnRK1A-RD-GFP mainly in the nucleus, whereas SKIN1-GFP was predominantly localized in the nucleus and minor in the cytoplasm. Co-expression of SnRK1A-GFP with SKIN1 excluded all SnRK1A-GFP from the nucleus. […]

[4] = biological target: T2, GAD-SnRK1A (full-length SnRK1A 1-505 fused to the Gal4 activation domain) (rice, UniProt Q852Q2 1-505); test: rice embryo GAL4-UAS two-hybrid, luciferase reporter
T2 construct: range 1-505
T2 sequence (looked up): T1 sequence (looked up)
Method: FIG. 2. The N-terminus of SKIN interacts with the kinase domain of SnRK1A. For the GAL4-UAS two-hybrid assay, rice embryos were co-transfected with effector and reporter plasmids, incubated in −S medium for 24 h, and assayed for luciferase activity. The luciferase activity in rice embryos bombarded with effectors Ubi:GAD, Ubi:GBD and reporter 5XUAS-35S mp:Luc was set to 1×, and other values were calculated relative to this value. Error bars indicate the SE for three replicate experiments. Significance levels: * p<0.1, ** p<0.05. The Y axis indicates the relative luciferase activity with different constructs. (A) Plasmid constructs. (B) Rice embryos were co-transfected with effectors Ubi:GAD-SnRK1A and Ubi:GBD-SKIN (wild type or truncated) and reporter 5XUAS-35S mp:Luc. (C) Rice embryos were co-transfected with effectors Ubi:GAD-SnRK1A [wild type, kinase domain (KD) or regulatory (RD)], Ubi:GBD-SKIN and reporter 5XUAS-35S mp:Luc. (D) Rice embryos were co-transfected with effectors Ubi:GAD-SnRK1A and Ubi:GBD-SKIN and reporter 5XUAS-35S mp:Luc, and incubated in −S medium containing 1 μM ABA.
Rice embryos were prepared for particle bombardment as described (Chen et al., 2006). The rice embryos were bombarded with reporter, effectors and internal control at a ratio of 4:2:1 for single effector or 4:2:2:1 for two effectors. […]

Which “Effect of sucrose on retarded shoot elongation of SKIN-Ox lines” value (rice seedlings [1]) does the source give for `OC[C@H]1O[C@@](CO)(O[C@H]2O[C@H](CO)[C@@H](O)[C@H](O)[C@H]2O)[C@@H](O)[C@@H]1O` [sucrose] here?
Its value is “significantly recovered”.

And the “Effect of sucrose on growth of SKIN-Ox lines” value (rice seedlings [2])?
Its value is “recover the growth”.

B1: SKIN1-GFP (other)
chain: MSTAVADVPPAAAYGFPGSAKRGKPEEVVVLMGKRRNEGFFIEEEEEEEEVLTESSSIGAPSPASSSIGENSGEEEGGDDEEEVESKLKAEDEQVGLGCLDALEESLPIKRGLSNFYAGKSKSFTSLAEATASPAAAANELAKPENPFNKRRRILATWSRRASCSSLATATYLPPLLAPDHAVAEGDEGEEEDDDSDDDERQHRGKNGGRRESAAPPLPLPPPRLTLHTQMGGMVRRNGTFRSPRSLSLSDLQNSGGSC
notes: also called Ubi:SKIN1-GFP; SKIN-GFP; not shown: green fluorescence protein (GFP)
Does B1 bind [3]?
Result: binds

B2: GBD-SKIN2 86-261 (other)
chain: MKLLSSIEQACDICRLKKLKCSKEKPKCAKCLKNNWECRYSPKTKRSPLTRAHLTEVESRLERLEQLFLLIFPREDLDMILKMDSLQDIKALLTGLFVQDNVNKDAVTDRLASVETDMPLTLRQHRISATSSSEESSNKGQRQLTVSSKAKEVAVEVEGGGLGFHGLGTLESLEDALPIKRGLSNFYAGKSKSFTSLAEAAAKAAAKEIAKPENPFNKRRRVLAAWSRRRASCSSLATTYLPPLLAPDHAVVEEEDEEDDSDAEQCSGSGGGNRRREPTFPPPRLSLHAQKSSLTPRSSNPASSFRSPRSFSLSDLQNAGSYN
Does B2 bind [4]?
Result: no binding
